Source: patent US10143199B2, “Method of killing bedbug eggs” (Ecolab USA Inc., priority 2012, dated 2018)

How the values were obtained:
Format in all cases: in vivo
Bedbug eggs [1] = assay: Treating bedbug eggs with anionic compounds near neutral pH (Example 2), kill of eggs; conditions: pH 7-8, 100° F., 5 min
Description: (§1) Aqueous test compositions of each of several anionic compounds prepared and adjusted to near neutral pH of about 7-8. Bedbug eggs were then contacted with a 100° F. test composition for 5 min.

Bedbug eggs [2] = assay: Treating bedbug eggs on a substrate with test composition at pH 9 to 10 (Example 1); conditions: 1% solution, pH of 9 to 10, 100° F., 5 minutes exposure
Description: Bedbug eggs on a substrate were exposed to a 100° F. test composition for 5 minutes and then examined. […] Water by itself killed about 20% of the bedbug eggs. And, complete kill was accomplished by a commercial bedbug killer sold under the tradename Transport.

Bedbug Eggs and Nymphs = assay: Treating bedbug eggs with anionic compounds near neutral pH (Example 2), kill of eggs and nymphs; conditions: pH 7-8, 100° F., 5 min
Description: as §1

Compound	% Kill of Bedbug Eggs (Bedbug eggs [1]; 0.1% aqueous test composition)	% Kill of Bedbug Eggs (Bedbug eggs [1]; 1% aqueous test composition)	kill of bedbug eggs (Bedbug eggs [2])	% Kill of Bedbug Eggs and Nymphs (Bedbug Eggs and Nymphs; 0.1% aqueous test composition)	% Kill of Bedbug Eggs and Nymphs (Bedbug Eggs and Nymphs; 1% aqueous test composition)
CCCCCCCCCCCCOS(=O)(=O)[O-].[Na+] [sodium lauryl sulfate]	70%	75%	did not kill	95%	100%
CCCCCCCCS(=O)(=O)[O-].[Na+] [sodium octyl sulfonate]		90%			95%
sodium dodecylbenzene sulfonate		30%			30%
sodium lauryl ether sulfate		35%			35%
